Data reported in US10836763B2, “5 to 7 membered heterocyclic amides as JAK inhibitors” (priority 2018, dated 2020).
Like-named read-outs stand apart in the source and are kept apart here.

Legend:
JAK3 = JAK3 (Homo sapiens (Human), UniProt P52333); type: biochemical
Description: (§1) Assay 1: Biochemical JAK Kinase Assays
(§2) A panel of four LanthaScreen JAK biochemical assays (JAK1, 2, 3 and Tyk2) were carried in a common kinase reaction buffer (50 mM HEPES, pH 7.5, 0.01% Brij-35, 10 mM MgCl2, and 1 mM EGTA). Recombinant GST-tagged JAK enzymes and a GFP-tagged STAT1 peptide substrate were obtained from Life Technologies.
(§3) Serially diluted compounds were pre-incubated with each of the four JAK enzymes and the substrate in white 384-well microplates (Corning) at ambient temperature for 1 h. ATP was subsequently added to initiate the kinase reactions in 10 μL total volume, with 1% DMSO. […] Kinase reactions were allowed to proceed for 1 hour at ambient temperature before a 10 μL preparation of EDTA (10 mM final concentration) and Tb-anti-pSTAT1 (pTyr701) antibody (Life Technologies, 2 nM final concentration) in TR-FRET dilution buffer (Life Technologies) was added. The plates were allowed to incubate at ambient temperature for 1 h before being read on the EnVision reader (Perkin Elmer). Emission ratio signals (520 nm/495 nm) were recorded and utilized to calculate the percent inhibition values based on DMSO and background controls.
(§4) For dose-response analysis, percent inhibition data were plotted vs. compound concentrations, and IC50 values were determined from a 4-parameter robust fit model with the Prism software (GraphPad Software). Results were expressed as pIC50 (negative logarithm of IC50) and subsequently converted to pKi (negative logarithm of dissociation constant, Ki) using the Cheng-Prusoff equation.

JAK2 = JAK2 (Homo sapiens (Human), UniProt O60674); experiment: Biochemical JAK kinase assay (LanthaScreen), JAK2
Description: as §1, §2, §3, §4

[1] = test system: TSLP-evoked TARC release in human peripheral blood mononuclear cells; experiment: Inhibition of TSLP-evoked TARC release in human peripheral blood mononuclear cells; type: cell-based; conditions: read-out: pIC50 ± st. dev., inhibition of TSLP-evoked TARC release (converted)
From the text: Assay 4: Inhibition of TSLP-Evoked TARC Release in Human Peripheral Blood Mononuclear Cells
Thymic stromal lymphopoietin (TSLP) and thymus and activation-regulated chemokine (TARC) are overexpressed in asthmatic airways, and correlate with disease severity. In the lungs, TSLP may be released by bronchial epithelial cells in response to allergens and viral infections. TSLP signals through an IL-7Rα/TSLPR heterodimer found in a broad range of tissues and cell types, including epithelial cells, endothelial cells, neutrophils, macrophages, and mast cells. The binding of TSLP to its receptor induces a conformational change that activates JAK1 and JAK2 to phosphorylate various transcription factors, including STAT3 and STAT5. In immune cells, this triggers a cascade of intracellular events that result in cell proliferation, anti-apoptosis, dendritic cell migration, and production of Th2 cytokines and chemokines. In peripheral blood mononuclear cells (PBMC), TSLP has a proinflammatory effect by activating myeloid dendritic cells to attract and stimulate T cells, a process mediated by the chemoattractant TARC.
The potencies of the test compounds were measured for inhibition of TARC release.
PBMC aliquots (previously isolated from whole blood and frozen in aliquots at −80° C.) from 3 to 5 donors were thawed at 37° C. and added dropwise to 40 mL pre-warmed, sterile-filtered, complete RPMI media in 50 mL Falcon tubes. Cells were pelleted and resuspended in complete media at 2.24×10^6 cells/mL. Cells were seeded at […] (190,000 cells) per well in a tissue culture treated 96-well flat bottom microplate. Cells were allowed to rest for 1 hour at 37° C. with 5% CO2.
Compounds were received as 10 mM stock solutions in DMSO. 3.7-fold serial dilutions were performed to generate 9 concentrations of test compound in DMSO at 300× the final assay test concentration. […] After the 1 hour rest period, 95 µL of 2× compound was added to each well of PBMC, for a final assay concentration range of 33.33 μM to […]. 95 μL of 0.2% DMSO in complete media was added to the untreated control wells. Cells were pre-treated with compound for 1 hour at 37° C. with 5% CO2 prior to stimulation.
Recombinant human TSLP protein was reconstituted at 10 μg/mL in sterile DPBS with 0.1% BSA and stored in aliquots at −20° C. Immediately prior to use, an aliquot was thawed and prepared at 20× the final assay concentration in complete media. 10 μL of 20×TSLP was added to each well of PBMC, for a final assay concentration of 10 ng/mL. 10 μL of complete media was added to the unstimulated control wells. Cells were stimulated in the presence of compound for 48 hours at 37° C. with 5% CO2.
Following stimulation, the cell culture supernatants were harvested and TARC levels were detected by enzyme-linked immunosorbent assay (ELISA), using Human CCL17/TARC Quantikine ELISA Kit (R&D Systems # DDN00) according to the manufacturer's instructions.
For dose response analysis, the log [test compound (M)] was plotted versus the percent response values for each donor, and IC50 values were determined using a nonlinear regression analysis with GraphPad Prism Software using the 4-parameter sigmoidal dose-response algorithm with variable slope. Data are expressed as mean pIC50 (negative decadic logarithm IC50) values calculated from pIC50 values of individual donors and rounded to one decimal place.

[2] = test system: IL-2 stimulated STAT5 phosphorylation in Tall-1 human T cell line; experiment: Inhibition of IL-2 stimulated pSTAT5 in Tall-1 T cells; type: cell-based; conditions: TALL-1, 0.5 h, read-out: Tall-1 pIC50 (converted)
Description: Assay 2: Inhibition of IL-2 Stimulated pSTAT5 in Tall-1 T Cells
The potency of test compounds for inhibition of interleukin-2 (IL-2) stimulated STAT5 phosphorylation was measured in the Tall-1 human T cell line (DSMZ) using AlphaLisa.
Phosphorylated STAT5 was measured via the AlphaLISA SureFire Ultra pSTAT5 (Tyr694/699) kit (PerkinElmer).
Compounds were serially diluted in DMSO and dispensed acoustically to empty wells. Assay media (phenol red-free DMEM (Life Technologies) supplemented with 10% FBS (ATCC)) was dispensed (4 μL/well) and plates shaken at 900 rpm for 10 mins. Cells were seeded at 45,000 cells/well in assay media (4 μL/well), and incubated at 37° C., 5% CO2 for 1 hour, followed by the addition of IL-2 (R&D Systems; final concentration 300 ng/mL) in pre-warmed assay media (4 μL) for 30 minutes. […] The lysate was shaken at 900 rpm for 10 minutes at room temperature (RT). Phosphorylated STAT5 was measured via the pSTAT5 AlphaLisa kit (PerkinElmer). Freshly prepared acceptor bead mixture was dispensed onto lysate (5 μL) under green filtered <100 lux light. Plates were shaken at 900 rpm for 2 mins, briefly spun down, and incubated for 2 hrs at RT in the dark. Donor beads were dispensed (5 μL) under green filtered <100 lux light. Plates were shaken at 900 rpm for 2 minutes, briefly spun down, and incubated overnight at RT in the dark. Luminescence was measured with excitation at 689 nm and emission at 570 nm using an EnVision plate reader (PerkinElmer) under green filtered <100 lux light.
To determine the inhibitory potency of test compounds in response to IL-2, the average emission intensity of beads bound to pSTAT5 was measured in a human T cell line. IC50 values were determined from analysis of the inhibition curves of signal intensity versus compound concentration. Data are expressed as pIC50 (negative decadic logarithm IC50) values (mean±standard deviation).

[3] = ATP at Km 1.6 μM, pIC50 converted with Cheng-Prusoff
[4] = ATP at Km 3 μM, pIC50 converted with Cheng-Prusoff
[5] = PBMC from 3 to 5 donors, TSLP 10 ng/mL, 48 hours, TARC ELISA
[6] = IL-2 300 ng/mL, 30 min, pSTAT5 AlphaLisa

JAK3, sequence (P52333 whole entry): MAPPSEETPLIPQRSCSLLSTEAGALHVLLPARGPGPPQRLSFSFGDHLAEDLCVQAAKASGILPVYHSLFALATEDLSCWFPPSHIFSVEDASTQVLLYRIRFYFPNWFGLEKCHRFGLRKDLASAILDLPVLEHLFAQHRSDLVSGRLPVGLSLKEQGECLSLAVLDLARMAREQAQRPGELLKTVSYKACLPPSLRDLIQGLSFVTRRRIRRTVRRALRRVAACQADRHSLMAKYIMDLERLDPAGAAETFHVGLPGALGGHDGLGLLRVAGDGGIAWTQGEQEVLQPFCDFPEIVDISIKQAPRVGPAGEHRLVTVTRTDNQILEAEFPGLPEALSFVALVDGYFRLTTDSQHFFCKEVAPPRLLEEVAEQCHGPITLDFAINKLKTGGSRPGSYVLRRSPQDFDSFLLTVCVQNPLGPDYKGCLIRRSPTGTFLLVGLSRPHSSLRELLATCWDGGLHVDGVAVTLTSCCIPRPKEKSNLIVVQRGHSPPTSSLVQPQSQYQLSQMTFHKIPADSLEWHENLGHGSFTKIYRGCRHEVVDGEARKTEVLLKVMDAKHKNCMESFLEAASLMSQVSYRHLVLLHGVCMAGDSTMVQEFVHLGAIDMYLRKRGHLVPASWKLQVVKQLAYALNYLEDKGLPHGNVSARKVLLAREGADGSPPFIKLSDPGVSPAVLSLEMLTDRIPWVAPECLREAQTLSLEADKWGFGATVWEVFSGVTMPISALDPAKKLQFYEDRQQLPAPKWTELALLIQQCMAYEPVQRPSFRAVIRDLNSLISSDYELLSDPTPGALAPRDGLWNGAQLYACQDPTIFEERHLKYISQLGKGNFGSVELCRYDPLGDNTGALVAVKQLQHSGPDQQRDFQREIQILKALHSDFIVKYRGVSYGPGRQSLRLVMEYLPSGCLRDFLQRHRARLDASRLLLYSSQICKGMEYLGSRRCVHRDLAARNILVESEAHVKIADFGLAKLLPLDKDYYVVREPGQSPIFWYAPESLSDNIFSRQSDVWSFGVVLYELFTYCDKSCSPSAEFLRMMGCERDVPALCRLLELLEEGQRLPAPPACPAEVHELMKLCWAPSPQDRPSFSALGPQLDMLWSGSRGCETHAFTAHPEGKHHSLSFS
JAK2, sequence (O60674 whole entry): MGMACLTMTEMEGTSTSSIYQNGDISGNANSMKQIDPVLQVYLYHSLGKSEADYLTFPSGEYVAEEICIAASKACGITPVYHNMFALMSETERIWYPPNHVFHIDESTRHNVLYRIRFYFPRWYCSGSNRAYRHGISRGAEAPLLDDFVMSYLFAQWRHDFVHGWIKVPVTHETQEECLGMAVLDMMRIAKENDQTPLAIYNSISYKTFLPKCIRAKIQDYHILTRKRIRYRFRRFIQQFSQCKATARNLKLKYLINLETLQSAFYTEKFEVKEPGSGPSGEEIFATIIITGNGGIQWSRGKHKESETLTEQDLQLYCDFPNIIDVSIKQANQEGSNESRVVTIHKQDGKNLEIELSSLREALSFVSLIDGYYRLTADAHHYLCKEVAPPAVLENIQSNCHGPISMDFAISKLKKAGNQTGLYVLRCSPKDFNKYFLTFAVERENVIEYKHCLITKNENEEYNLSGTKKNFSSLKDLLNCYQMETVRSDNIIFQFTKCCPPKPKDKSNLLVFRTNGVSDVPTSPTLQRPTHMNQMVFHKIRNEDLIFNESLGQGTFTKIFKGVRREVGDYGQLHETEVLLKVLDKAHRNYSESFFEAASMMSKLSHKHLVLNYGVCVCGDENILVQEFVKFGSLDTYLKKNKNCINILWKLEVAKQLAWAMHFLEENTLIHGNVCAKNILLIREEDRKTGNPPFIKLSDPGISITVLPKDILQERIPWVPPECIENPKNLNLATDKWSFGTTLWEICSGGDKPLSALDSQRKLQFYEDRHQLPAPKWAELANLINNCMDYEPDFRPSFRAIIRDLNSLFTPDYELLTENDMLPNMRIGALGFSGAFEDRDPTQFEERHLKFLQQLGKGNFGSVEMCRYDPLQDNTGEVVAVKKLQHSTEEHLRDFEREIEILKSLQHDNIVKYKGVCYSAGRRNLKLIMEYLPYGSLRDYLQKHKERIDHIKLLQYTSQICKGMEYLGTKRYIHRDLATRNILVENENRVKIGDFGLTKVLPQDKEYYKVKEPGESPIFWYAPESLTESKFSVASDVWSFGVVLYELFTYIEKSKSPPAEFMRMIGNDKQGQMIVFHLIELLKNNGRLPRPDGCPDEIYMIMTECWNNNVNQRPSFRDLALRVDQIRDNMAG

Row | SMILES | JAK3 PKi (JAK3; [3]) | JAK2 pKi (JAK2; [4]) | IC50 [1, 5] [nM] | IC50 [2, 6] [nM] | JAK3 PKi (JAK3) | JAK2 pKi (JAK2) | IC50 ([1]; PBMC, 48 h) [nM] | IC50 [2] [nM]
1 | CCCN1Cc2[nH]c(-c3n[nH]c4cc(-c5ccc(O)cc5CC)ccc34)nc2C[C@H]1C(=O)N1CCN(CCO)CC1 [Compound 1, (S)-(2-(6-(2-ethyl-4-hydroxyphenyl)-1H-indazol-3-yl)-5-propyl-4,5,6,7-tetrahydro-3H-imidazo[4,5-c]pyridin-6-yl)(4-(2-hydroxyethyl)piperazin-1-yl)methanone] | 9.8 | 10.3 | 79.4 | 1.58 | – | – | – | –
2 | CCCN1Cc2[nH]c(-c3n[nH]c4cc(-c5ccc(O)cc5CC)ccc34)nc2C[C@H]1C(=O)N1C[C@@H]2C[C@H]1CN2C [Compound 2, ((S)-2-(6-(2-ethyl-4-hydroxyphenyl)-1H-indazol-3-yl)-5-propyl-4,5,6,7-tetrahydro-3H-imidazo[4,5-c]pyridin-6-yl)((1S,4S)-5-methyl-2,5-diazabicyclo[2.2.1]heptan-2-yl)methanone] | 9.8 | 10.2 | 158 | 3.98 | – | – | – | –
3 | CCc1cc(O)c(F)cc1-c1ccc2c(-c3nc4c([nH]3)CN(C(C)C)[C@H](C(=O)N3CCCN(C)CC3)C4)n[nH]c2c1 [Compound C-4, (S)-(2-(6-(2-ethyl-5-fluoro-4-hydroxyphenyl)-1H-indazol-3-yl)-5-isopropyl-4,5,6,7-tetrahydro-3H-imidazo[4,5-c]pyridin-6-yl)(4-methyl-1,4-diazepan-1-yl)methanone, reference compound] | – | 10.6 | 100 | 2 | 9.8 | – | – | –
4 | CCc1cc(O)ccc1-c1ccc2c(-c3nc4c([nH]3)CN(C(C)C)[C@H](C(=O)N3CC[C@H](N(C)C)C3)C4)n[nH]c2c1 [Compound 6, ((S)-3-(dimethylamino)pyrrolidin-1-yl)((S)-2-(6-(2-ethyl-4-hydroxyphenyl)-1H-indazol-3-yl)-5-isopropyl-4,5,6,7-tetrahydro-3H-imidazo[4,5-c]pyridin-6-yl)methanone] | – | – | – | – | 10.0 | 10.4 | 158 | 2
5 | CCc1cc(O)c(F)cc1-c1ccc2c(-c3nc4c([nH]3)CN(C)[C@H](C(=O)N3CCN(C)C[C@@H]3C)C4)n[nH]c2c1 [Compound C-3, ((S)-2,4-dimethylpiperazin-1-yl)((S)-2-(6-(2-ethyl-5-fluoro-4-hydroxyphenyl)-1H-indazol-3-yl)-5-methyl-4,5,6,7-tetrahydro-3H-imidazo[4,5-c]pyridin-6-yl)methanone, reference compound] | – | 10.5 | 100 | 2 | 9.7 | – | – | –
6 | CCCN1Cc2[nH]c(-c3n[nH]c4cc(-c5cc(F)c(O)cc5CC)ccc34)nc2C[C@H]1C(=O)N1CCN(CCO)CC1 [Compound C-1, (S)-(2-(6-(2-ethyl-5-fluoro-4-hydroxyphenyl)-1H-indazol-3-yl)-5-propyl-4,5,6,7-tetrahydro-3H-imidazo[4,5-c]pyridin-6-yl)(4-(2-hydroxyethyl)piperazin-1-yl)methanone, reference compound] | – | 10.5 | 100 | 2 | 9.7 | – | – | –
7 | CCc1cc(O)ccc1-c1ccc2c(-c3nc4c([nH]3)CN(C)[C@H](C(=O)N3CCN(CCO)C[C@H]3C)C4)n[nH]c2c1 [Compound 5, ((S)-2-(6-(2-ethyl-4-hydroxyphenyl)-1H-indazol-3-yl)-5-methyl-4,5,6,7-tetrahydro-3H-imidazo[4,5-c]pyridin-6-yl)((R)-4-(2-hydroxyethyl)-2-methylpiperazin-1-yl)methanone] | – | – | – | – | 10.1 | 10.5 | 31.6 | 1.58
8 | CCc1cc(O)ccc1-c1ccc2c(-c3nc4c([nH]3)CN(C(C)C)[C@H](C(=O)N3CCCN(C)CC3)C4)n[nH]c2c1 [Compound 4, (S)-(2-(6-(2-ethyl-4-hydroxyphenyl)-1H-indazol-3-yl)-5-isopropyl-4,5,6,7-tetrahydro-3H-imidazo[4,5-c]pyridin-6-yl)(4-methyl-1,4-diazepan-1-yl)methanone] | – | – | – | – | 10.1 | 10.4 | 158 | 2.51
